Reference: PubChem BioAssay AID248 (DTP/NCI, 2004)
Inconclusive results and toxic doses are left out. Rule as the data show it: active = T/C of 150% or more; inactive = T/C below 125%.

Test system: L1210 leukemia ip in BDF1 mice, survival T/C
Assay: NCI In Vivo Anticancer Drug Screen. Data for tumor model L1210 Leukemia (intraperitoneal) in B6D2F1 (BDF1) mice
Settings: endpoint: mean survival time, higher = longer survival
In short: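 Value reflects the ratio of survival in compound-treated mice to survival in vehicle-treated controls, with both groups carrying the same transplanted tumor.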

[1] = dose: 100.0 mg/kg/injection, schedule: Q04DX002 (ip), vehicle: saline
[2] = dose: 200.0 mg/kg/injection, schedule: Q04DX002 (ip), vehicle: saline
[3] = dose: 100.0 mg/kg/injection, schedule: Q04DX003 (ip), vehicle: saline with Tween-80
[4] = dose: 200.0 mg/kg/injection, schedule: Q04DX003 (ip), vehicle: saline with Tween-80
[5] = dose: 400.0 mg/kg/injection, schedule: Q04DX002 (ip), vehicle: saline
[6] = dose: 44.0 mg/kg/injection, schedule: Q01DX Z (ip), vehicle: methylcellulose (MC)
[7] = dose: 66.0 mg/kg/injection, schedule: Q01DX Z (ip), vehicle: methylcellulose (MC)
[8] = dose: 100.0 mg/kg/injection, schedule: Q01DX Z (ip), vehicle: methylcellulose (MC)
[9] = dose: 50.0 mg/kg/injection, schedule: Q01DX001 (ip), vehicle: saline
[10] = dose: 100.0 mg/kg/injection, schedule: Q01DX001 (ip), vehicle: saline
[11] = dose: 200.0 mg/kg/injection, schedule: Q01DX001 (ip), vehicle: saline
[12] = dose: 400.0 mg/kg/injection, schedule: Q01DX001 (ip), vehicle: saline
[13] = dose: 100.0 mg/kg/injection, schedule: Q01DX001 (ip), vehicle: saline with Tween-80
[14] = dose: 200.0 mg/kg/injection, schedule: Q01DX001 (ip), vehicle: saline with Tween-80
[15] = dose: 400.0 mg/kg/injection, schedule: Q04DX003 (ip), vehicle: saline with Tween-80
[16] = dose: 100.0 mg/kg/injection, schedule: Q01DX009 (ip), vehicle: saline with Tween-80
[17] = dose: 200.0 mg/kg/injection, schedule: Q01DX009 (ip), vehicle: saline with Tween-80
[18] = dose: 100.0 mg/kg/injection, schedule: Q04DX003 (ip), vehicle: saline
[19] = dose: 200.0 mg/kg/injection, schedule: Q04DX003 (ip), vehicle: saline
[20] = dose: 400.0 mg/kg/injection, schedule: Q04DX003 (ip), vehicle: saline
[21] = dose: 100.0 mg/kg/injection, schedule: Q04DX003 (ip), vehicle: Klucel (hydroxypropylcellulose) (HPC)
[22] = dose: 200.0 mg/kg/injection, schedule: Q04DX003 (ip), vehicle: Klucel (hydroxypropylcellulose) (HPC)
[23] = dose: 400.0 mg/kg/injection, schedule: Q04DX003 (ip), vehicle: Klucel (hydroxypropylcellulose) (HPC)
[24] = dose: 100.0 mg/kg/injection, schedule: Q01DX009 (ip), vehicle: other
[25] = dose: 75.0 mg/kg/injection, schedule: Q01DX001 (ip), vehicle: saline
[26] = dose: 25.0 mg/kg/injection, schedule: Q04DX003 (ip), vehicle: saline with Tween-80
[27] = dose: 50.0 mg/kg/injection, schedule: Q04DX003 (ip), vehicle: saline with Tween-80

Measured: T/C

CC[C@@H](O)C[C@H]1CCC[C@@]2(C[C@@H]3OC(=O)/C=C/[C@@](C)(O)[C@@H](O)[C@H](C)[C@@H](O)[C@H](OC4CCC(N(C)C)C(C)O4)[C@@H](O)[C@](C)(O)CCCCC/C=C/[C@@H]4CC(C)(C)O[C@@]4(O)C[C@H](O2)[C@H]3C)O1 (stereo partly drawn)
inactive: dose: 0.25 mg/kg/injection, schedule: Q04DX003 (ip), vehicle: saline 104 % of control | dose: 0.5 mg/kg/injection, schedule: Q04DX003 (ip), vehicle: saline 111 % of control | dose: 1.0 mg/kg/injection, schedule: Q04DX003 (ip), vehicle: saline 94 % of control | dose: 150.0 micrograms/kg/injection, schedule: Q01DX Z (sc), vehicle: steriod suspending solution 108 % of control | dose: 230.0 micrograms/kg/injection, schedule: Q01DX Z (sc), vehicle: steriod suspending solution 102 % of control | dose: 345.0 micrograms/kg/injection, schedule: Q01DX Z (sc), vehicle: steriod suspending solution 91 % of control

C=C(CCCCCC/C=C\CCCCCCCC)C(=O)O
inactive: dose: 100.0 mg/kg/injection, schedule: Q04DX002 (sc), vehicle: olive oil, sesame oil, peanut oil 103 % of control | dose: 200.0 mg/kg/injection, schedule: Q04DX002 (sc), vehicle: olive oil, sesame oil, peanut oil 103 % of control | dose: 400.0 mg/kg/injection, schedule: Q04DX002 (sc), vehicle: olive oil, sesame oil, peanut oil 103 % of control

C=CCC(C#N)(C(=O)OCC)/C(C)=C/C (stereo not drawn)
inactive: dose: 75.0 mg/kg/injection, schedule: Q01DX001 (ip), vehicle: other 100 % of control | dose: 150.0 mg/kg/injection, schedule: Q01DX001 (ip), vehicle: other 103 % of control | dose: 300.0 mg/kg/injection, schedule: Q01DX001 (ip), vehicle: other 97 % of control

O=C(NCc1ccncc1)Nc1ccccc1Cl
inactive: [1] 97 % of control | [2] 87 % of control

NNC(=O)CCc1ccccc1Br
inactive: [3] 99 % of control | [4] 92 % of control

Cc1ccc(S(=O)(=O)c2ccc(C)c(N)c2)cc1N
inactive: [1] 105 % of control | [2] 99 % of control | [5] 96 % of control

CCN1CC2C3CCC(C)(O3)C2C1 (stereo not drawn)
inactive: [6] 100 % of control | [7] 92 % of control | [8] 98 % of control

CCCCCCCCCCCCCCCCCC[N+]1(Cc2ccccc2)CCOCC1
inactive: dose: 100.0 mg/kg/injection, schedule: Q01DX001 (ip), vehicle: Klucel (hydroxypropylcellulose) (HPC) 110 % of control

CC(C)(C(N)=O)c1ccccc1
inactive: [9] 106 % of control | [10] 103 % of control | [11] 103 % of control | [12] 100 % of control

CC(=O)OC1(C[N+](=O)[O-])CCCCC1
inactive: dose: 50.0 mg/kg/injection, schedule: Q01DX001 (ip), vehicle: saline with Tween-80 93 % of control | [13] 101 % of control | [14] 101 % of control

CC1(C)CCC(CC(=O)O)(CC(=O)O)CC1
inactive: [3] 95 % of control | [15] 92 % of control

O=C1C(Cl)=C(Nc2ccc(Cl)c(Cl)c2)C(=O)c2ccccc21
inactive: [3] 98 % of control | [4] 92 % of control | [15] 98 % of control

O=C(Nc1cccc(F)c1)Nc1ccc(C(=O)O)c(O)c1
inactive: [16] 91 % of control | [17] 95 % of control

C1CNC(C2=NCCN2)=N1
inactive: [1] 100 % of control | [2] 100 % of control | [5] 90 % of control

Cc1c(CC[n+]2cccc(C(N)=O)c2)[nH]c(=O)[nH]c1=O
inactive: [18] 97 % of control | [19] 101 % of control | [20] 97 % of control

CN(CCC(=O)c1ccccc1)CCC(=O)c1ccccc1
inactive: [13] 93 % of control | [14] 94 % of control

CCCCCCCC(=O)/C=C/c1ccc(C)cc1
inactive: [18] 105 % of control | [19] 103 % of control | [20] 92 % of control

O=Cc1nc2ccccc2c2ccccc12
inactive: [3] 89 % of control | [4] 94 % of control | [15] 103 % of control

Cn1c(C(N)=O)cc(=O)n1-c1ccc([N+](=O)[O-])cc1
inactive: [21] 101 % of control | [22] 97 % of control | [23] 101 % of control

COC(=O)C1C2C=CC(O2)C1C(=O)OC (stereo not drawn)
inactive: dose: 100.0 mg/kg/injection, schedule: Q01DX009 (ip), vehicle: carboxymethylcellulose (CMC) 98 % of control | [24] 101 % of control | dose: 200.0 mg/kg/injection, schedule: Q01DX009 (ip), vehicle: carboxymethylcellulose (CMC) 102 % of control | dose: 200.0 mg/kg/injection, schedule: Q01DX009 (ip), vehicle: other 102 % of control | dose: 400.0 mg/kg/injection, schedule: Q01DX009 (ip), vehicle: carboxymethylcellulose (CMC) 96 % of control | dose: 400.0 mg/kg/injection, schedule: Q01DX009 (ip), vehicle: other 101 % of control

CSCCC(C#N)(CCN(C)C)c1ccccc1 (stereo not drawn)
inactive: dose: 25.0 mg/kg/injection, schedule: Q01DX009 (ip), vehicle: other 102 % of control | dose: 50.0 mg/kg/injection, schedule: Q01DX009 (ip), vehicle: other 98 % of control | [24] 91 % of control | [16] 97 % of control | [21] 96 % of control | [22] 98 % of control

Cc1ccc(C(C)(CCC(=O)O)c2ccc(C)o2)o1
inactive: [3] 96 % of control | [4] 96 % of control | [15] 95 % of control

O=C(CNC(=O)OCc1ccccc1)NCCCCCCCCCCNC(=O)CNC(=O)OCc1ccccc1
inactive: dose: 10.0 mg/kg/injection, schedule: Q01DX Z (ip), vehicle: saline 104 % of control | dose: 30.0 mg/kg/injection, schedule: Q01DX Z (ip), vehicle: saline 90 % of control | dose: 100.0 mg/kg/injection, schedule: Q01DX Z (ip), vehicle: saline 90 % of control | dose: 300.0 mg/kg/injection, schedule: Q01DX Z (ip), vehicle: saline 95 % of control

CCNS(=O)(=O)c1ncnc2nc[nH]c12
inactive: dose: 44.0 mg/kg/injection, schedule: Q01DX Z (ip), vehicle: carboxymethylcellulose (CMC) 117 % of control | [6] 98 % of control | dose: 66.0 mg/kg/injection, schedule: Q01DX Z (ip), vehicle: carboxymethylcellulose (CMC) 123 % of control | [7] 102 % of control | [8] 106 % of control | dose: 150.0 mg/kg/injection, schedule: Q01DX Z (ip), vehicle: methylcellulose (MC) 102 % of control

O=C(Cc1ccccc1)ONC(CCCCNC(=O)OCc1ccccc1)C(=O)Nc1ccc(Cc2ccc(NC(=O)C(CCCCNC(=O)OCc3ccccc3)NC(=O)OCc3ccccc3)cc2)cc1 (stereo not drawn)
inactive: [9] 95 % of control | [10] 95 % of control | [11] 95 % of control | [12] 95 % of control

CNNC(=O)C(O)C(C)(C)CO (stereo not drawn)
inactive: [10] 100 % of control | [11] 100 % of control | [12] 102 % of control

O=C1CCCC1CNCc1ccccc1 (stereo not drawn)
inactive: [25] 103 % of control | dose: 150.0 mg/kg/injection, schedule: Q01DX001 (ip), vehicle: saline 100 % of control

CCOc1ccc(Nc2cc([N+](=O)[O-])ccc2C(=O)O)cc1
inactive: [26] 101 % of control | dose: 50.0 mg/kg/injection, schedule: Q01DX009 (ip), vehicle: saline with Tween-80 103 % of control | [27] 95 % of control | [16] 109 % of control | [3] 107 % of control | [17] 98 % of control | [4] 93 % of control

Cc1cc(Br)nc2ccccc12
inactive: [10] 92 % of control | [11] 89 % of control | [12] 97 % of control

CN(Cc1ccccc1O)C1CCCCC1
inactive: [25] 95 % of control

Cc1nc(N)[nH]c(=O)c1N (tested in a mixture with another compound)
inactive: [13] 103 % of control | [14] 107 % of control | dose: 400.0 mg/kg/injection, schedule: Q01DX001 (ip), vehicle: saline with Tween-80 97 % of control

NC(=O)N/N=C\c1ccco1
inactive: [26] 106 % of control | [27] 100 % of control | [21] 106 % of control | [3] 94 % of control | [22] 102 % of control | [23] 98 % of control
